From patent publication US11242361B2 (Proteostasis Therapeutics, Inc., priority 2013, dated 2022)

Molecular target: USP14 (Homo sapiens (Human), UniProt P54578)
Test: USP14 Inhibition Assay
Assay type: biochemical
Settings: average value from a minimum of two experimental determinations, read-out: IC50 Category
Experimental: Example 17: USP14 Inhibition Assay
“I” in the Table below designates an IC50 of >5 μM, “II” in the Table below designates and IC50 between 0.5 and 5 μM, and “III” designates an IC50<0.5 μM. The IC50 values in the Table below represent the average value from a minimum of two experimental determinations.

Sequence of USP14 (P54578 whole entry, looked up): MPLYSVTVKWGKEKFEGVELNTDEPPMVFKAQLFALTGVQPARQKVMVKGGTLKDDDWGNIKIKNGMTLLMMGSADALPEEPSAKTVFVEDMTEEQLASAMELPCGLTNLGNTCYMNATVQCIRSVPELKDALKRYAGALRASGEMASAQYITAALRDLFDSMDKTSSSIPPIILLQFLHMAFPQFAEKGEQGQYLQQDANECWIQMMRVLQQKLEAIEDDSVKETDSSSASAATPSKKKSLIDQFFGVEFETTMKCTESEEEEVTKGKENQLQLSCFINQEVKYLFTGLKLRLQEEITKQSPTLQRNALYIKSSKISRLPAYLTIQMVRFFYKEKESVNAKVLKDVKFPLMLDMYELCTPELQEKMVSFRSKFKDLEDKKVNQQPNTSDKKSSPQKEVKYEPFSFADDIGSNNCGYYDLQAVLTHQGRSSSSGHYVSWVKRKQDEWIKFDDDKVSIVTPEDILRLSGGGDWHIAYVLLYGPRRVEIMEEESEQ

Compound	IC50
Cc1c(C(=O)CN2CCC(O)CC2)c2ncccc2n1-c1ccc(C#N)cc1 [Compound 335]	< 500 nM
CC(C)c1c(C(=O)CN2CCCCC2)c2ncccc2n1-c1ccc(C#N)cc1 [Compound 336]	> 5000 nM
Cc1c(C(=O)CN2CCC(O)CC2)c2ccccc2n1-c1ccc(C#N)cc1 [Compound 337]	< 500 nM
COCCOc1cnc2c(C(=O)CN3CCC(O)CC3)c(C)n(-c3ccc(C#N)cc3)c2c1 [Compound 341]	< 500 nM
Cc1c(C(=O)CN2CCC(O)CC2)c2ncc(CCNS(C)(=O)=O)cc2n1-c1ccc(Cl)cc1 [Compound 342, N-(2-(1-(4-Chlorophenyl)-3-(2-(4-hydroxypiperidin-1-yl)acetyl)-2-methyl-1H-pyrrolo[3,2-b]pyridin-6-yl)ethyl)methanesulfonamide]	< 500 nM
Cc1c(C(=O)CN2CCCCC2)c2ncc(CCN3CCCC3)cc2n1-c1ccc(Cl)cc1 [Compound 346, 1-(1-(4-Chlorophenyl)-2-methyl-6-(2-(pyrrolidin-1-yl)ethyl)-1H-pyrrolo[3,2-b]pyridin-3-yl)-2-(piperidin-1-yl)ethan-1-one]	< 500 nM
CCCOc1cnc2c(C(=O)CN3CCC(O)CC3)c(C)n(-c3ccc(C#N)cc3)c2c1 [Compound 347]	< 500 nM
CCOC(=O)C[C@@H](C)c1cnc2c(C(=O)CN3CCCCC3)c(C)n(-c3ccc(C#N)cc3)c2c1 [Compound 350, Ethyl (R)-3-(1-(4-Cyanophenyl)-2-methyl-3-(2-(piperidin-1-yl)acetyl)-1H-pyrrolo[3,2-b]pyridin-6-yl)butanoate]	< 500 nM
CCOC(=O)C[C@H](C)c1cnc2c(C(=O)CN3CCCCC3)c(C)n(-c3ccc(C#N)cc3)c2c1 [Compound 351, Ethyl (S)-3-(1-(4-Cyanophenyl)-2-methyl-3-(2-(piperidin-1-yl)acetyl)-1H-pyrrolo[3,2-b]pyridin-6-yl)butanoate]	< 500 nM
Cc1c(C(=O)CN2CCC(O)CC2)c2ncc(CCS(N)(=O)=O)cc2n1-c1ccc(Cl)cc1 [Compound 357, 2-(1-(4-Chlorophenyl)-3-(2-(4-hydroxypiperidin-1-yl)acetyl)-2-methyl-1H-pyrrolo[3,2-b]pyridin-6-yl)ethane-1-sulfonamide]	< 500 nM
C#CCCCNC(=O)CCc1cnc2c(C(=O)CN3CCC(O)CC3)c(C)n(-c3ccc(C#N)cc3)c2c1 [Compound 361]	< 500 nM
Cc1c(C(=O)CN2CCC(O)CC2)c2ncc(CCC(=O)NCCCC#N)cc2n1-c1ccc(C#N)cc1 [Compound 362]	< 500 nM
COCCOc1cnc2c(C(=O)CN3CCC(OC)CC3)c(C)n(-c3ccc(Cl)cc3)c2c1 [Compound 363]	< 500 nM
COCCOc1cnc2c(C(=O)CN3CCCCC3)c(C)n(-c3ccc(Cl)cc3)c2c1 [Compound 364]	< 500 nM
COc1cnc2c(C(=O)CN3CCC(CN(C)C)CC3)c(C)n(-c3ccc(C#N)cc3)c2c1 [Compound 370]	< 500 nM
Cc1c(C(=O)CN2CCC(CC(=O)O)CC2)c2ncc(Br)cc2n1-c1ccc(Cl)cc1 [Compound 371]	> 5000 nM
N#Cc1ccc(-n2c(C(F)(F)F)c(C(=O)CN3CCCCC3)c3ncccc32)cc1 [Compound 372]	> 5000 nM
Cc1c(C(=O)CN2CCCCC2)c2ncc(CC(=O)NC3CC3)cc2n1-c1ccc(C#N)cc1 [Compound 381, 2-(1-(4-Cyanophenyl)-2-methyl-3-(2-(piperidin-1-yl)acetyl)-1H-pyrrolo[3,2-b]pyridin-6-yl)-N-cyclopropylacetamide]	< 500 nM
Cc1c(C(=O)CN2CCC(CNCC(=O)O)CC2)c2ncc(Br)cc2n1-c1ccc(Cl)cc1 [Compound 386]	> 5000 nM
CCCC(=O)CCc1cnc2c(C(=O)CN3CCCCC3)c(C)n(-c3ccc(Cl)cc3)c2c1 [Compound 387]	< 500 nM
Cc1c(C(=O)CN2CCC(O)CC2)c2ncccc2n1-c1ccc(Cl)cc1 [Compound 388]	< 500 nM
Cc1c(C(=O)CN2CCC(O)CC2)c2ccccc2n1-c1ccc(F)cc1 [Compound 389]	< 500 nM
Cc1c(C(=O)CN2CCC(O)(C(F)(F)F)CC2)c2ccccc2n1-c1ccc(Cl)cc1 [Compound 390]	> 5000 nM
Cc1c(C(=O)CN2CCC(O)CC2)c2ccccc2n1-c1ccc(F)c(F)c1 [Compound 391]	500 to 5000 nM
Cc1c(C(=O)CN2CCC(O)CC2)c2ccccc2n1-c1ccc(Cl)nc1 [Compound 392]	500 to 5000 nM
Cc1c(C(=O)CN2CCC(O)CC2)c2ccccc2n1-c1ccc(C#N)nc1 [Compound 393]	500 to 5000 nM
Cc1c(C(=O)CN2CCC(O)CC2)c2ccc(F)cc2n1-c1ccc(Cl)cc1 [Compound 394]	> 5000 nM
Cc1c(C(=O)CN2CCC(O)CC2)c2ccccc2n1-c1cccnc1 [Compound 395]	> 5000 nM
Cc1c(C(=O)CN2CCC(O)CC2)c2ccccc2n1-c1ccncc1 [Compound 396]	> 5000 nM
Cc1c(C(=O)CN2CCC(O)CC2)c2ccccc2n1-c1ccccn1 [Compound 397]	> 5000 nM

More lines, now with the values ahead:

IC50	Compound
< 500 nM	COc1cnc2c(C(=O)CN3CCCCC3)c(C)n(-c3ccc(C#N)cc3)c2c1 [Compound 326, 4-(6-Methoxy-2-methyl-3-(2-(piperidin-1-yl)acetyl)-1H-pyrrolo[3,2-b]pyridin-1-yl)benzonitrile]
> 5000 nM	Cc1c(C(=O)CN2CCS(=O)(=O)CC2)c2ncc(Br)cc2n1-c1ccc(C#N)cc1 [Compound 327]
> 5000 nM	Cc1c(C(=O)CN2CC[C@H](O)[C@@H](O)C2)c2ncc(Br)cc2n1-c1ccc(C#N)cc1 [Compound 328]
> 5000 nM	Cc1c(C(=O)CN2CCOCC2)c2ncc(Br)cc2n1-c1ccc(C#N)cc1 [Compound 329]
> 5000 nM	Cc1c(C(=O)CN2CCN(C)CC2)c2ncc(Br)cc2n1-c1ccc(C#N)cc1 [Compound 330]
< 500 nM	Cc1c(C(=O)CN2CCSCC2)c2ncc(Br)cc2n1-c1ccc(C#N)cc1 [Compound 331]
< 500 nM	Cc1c(C(=O)CN2CC[C@H](O)[C@H](O)C2)c2ncc(Br)cc2n1-c1ccc(C#N)cc1 [Compound 332]
> 5000 nM	Cc1c(C(=O)CN2C[C@H](C)C[C@H](C)C2)c2ncc(Br)cc2n1-c1ccc(C#N)cc1 [Compound 338]
< 500 nM	COc1cnc2c(C(=O)CN3CCC(O)CC3)c(C)n(-c3ccc(C#N)cc3)c2c1 [Compound 339]
< 500 nM	CCOc1cnc2c(C(=O)CN3CCC(O)CC3)c(C)n(-c3ccc(C#N)cc3)c2c1 [Compound 340]
> 5000 nM	Cc1c(C(=O)CN2CC3(COC3)C2)c2ncc(Br)cc2n1-c1ccc(C#N)cc1 [Compound 343]
> 5000 nM	Cc1c(C(=O)CN2CCNC(=O)C2)c2ncc(Br)cc2n1-c1ccc(C#N)cc1 [Compound 344]
> 5000 nM	Cc1c(C(=O)CN2CCCCO2)c2ncc(Br)cc2n1-c1ccc(C#N)cc1 [Compound 345]
> 5000 nM	Cc1c(C(=O)CN2C[C@H](C)C[C@@H](C)C2)c2ncc(Br)cc2n1-c1ccc(C#N)cc1 [Compound 348]
< 500 nM	Cc1c(C(=O)CN2C[C@@H](C)C[C@H](C)C2)c2ncc(Br)cc2n1-c1ccc(C#N)cc1 [Compound 349]
< 500 nM	Cc1c(C(=O)CN2CCC(CN(C)C)CC2)c2ncc(Br)cc2n1-c1ccc(C#N)cc1 [Compound 352]
< 500 nM	Cc1c(C(=O)CN2CCC(O)CC2)c2ncc(Br)cc2n1-c1ccc(C#N)cc1 [Compound 353]

IC50	Compound
< 500 nM	Cc1c(C(=O)CN2CCC(CN)CC2)c2ncc(Br)cc2n1-c1ccc(C#N)cc1 [Compound 354]
< 500 nM	Cc1c(C(=O)CN2CC[C@@H](O)[C@@H](O)C2)c2ncc(Br)cc2n1-c1ccc(C#N)cc1 [Compound 355]
< 500 nM	Cc1c(C(=O)CN2CC[C@H](O)[C@H](O)C2)c2ncc(Br)cc2n1-c1ccc(C#N)cc1 [Compound 356]
> 5000 nM	Cc1c(C(=O)CN2CC3(CCC3)C2)c2ncc(Br)cc2n1-c1ccc(C#N)cc1 [Compound 359]
< 500 nM	Cc1c(C(=O)CN2CCCCC2)c2ncc(CN3CCCC3)cc2n1-c1ccc(C#N)cc1 [Compound 360, 4-(2-Methyl-3-(2-(piperidin-1-yl)acetyl)-6-(pyrrolidin-1-ylmethyl)-1H-pyrrolo[3,2-b]pyridin-1-yl)benzonitrile]
500 to 5000 nM	CCOC(=O)CC1CCN(CC(=O)c2c(C)n(-c3ccc(C#N)cc3)c3cc(Br)cnc23)CC1 [Compound 365]
500 to 5000 nM	CCOC(=O)CC1CCCN(CC(=O)c2c(C)n(-c3ccc(C#N)cc3)c3cc(Br)cnc23)C1 (stereo not drawn) [Compound 366]
500 to 5000 nM	Cc1c(C(=O)CN2CCC(N)CC2)c2ncc(Br)cc2n1-c1ccc(C#N)cc1 [Compound 367]
500 to 5000 nM	CCOC(=O)CNCC1CCN(CC(=O)c2c(C)n(-c3ccc(C#N)cc3)c3cc(Br)cnc23)CC1 [Compound 368]
< 500 nM	COc1cnc2c(C(=O)CN3CCC(CN)CC3)c(C)n(-c3ccc(C#N)cc3)c2c1 [Compound 369]
500 to 5000 nM	Cc1c(C(=O)CN2[C@H](C)CCC[C@H]2C)c2ncc(Br)cc2n1-c1ccc(C#N)cc1 [Compound 373]
500 to 5000 nM	Cc1c(C(=O)CN2[C@@H](C)CCC[C@@H]2C)c2ncc(Br)cc2n1-c1ccc(C#N)cc1 [Compound 374]
< 500 nM	CCN(C)C(=O)Cc1cnc2c(C(=O)CN3CCCCC3)c(C)n(-c3ccc(C#N)cc3)c2c1 [Compound 382, 2-(1-(4-Cyanophenyl)-2-methyl-3-(2-(piperidin-1-yl)acetyl)-1H-pyrrolo[3,2-b]pyridin-6-yl)-N-ethyl-N-methylacetamide]
< 500 nM	CCNC(=O)Cc1cnc2c(C(=O)CN3CCCCC3)c(C)n(-c3ccc(C#N)cc3)c2c1 [Compound 383, 2-(1-(4-Cyanophenyl)-2-methyl-3-(2-(piperidin-1-yl)acetyl)-1H-pyrrolo[3,2-b]pyridin-6-yl)-N-ethylacetamide]
< 500 nM	CCOC(=O)Cc1cnc2c(C(=O)CN3CCCCC3)c(C)n(-c3ccc(C#N)cc3)c2c1 [Compound 384, Ethyl 2-(1-(4-Cyanophenyl)-2-methyl-3-(2-(piperidin-1-yl)acetyl)-1H-pyrrolo[3,2-b]pyridin-6-yl)acetate]
< 500 nM	Cc1c(C(=O)CN2CCCCC2)c2ncc(Cl)cc2n1-c1ccc(C#N)cc1 [Compound 385]
